Assay results published in patent US8202514B2, “Bacillus subtilis strain having antagonistic activity for controlling plant diseases” (Korea Research Institute of Chemical Technology, priority 2004, dated 2012).
Read-outs that look alike come from different tables or passages of the source.

Experiments:
[1] = system: anthracnose pathogen, Colletotrichum orbiculare; assay type: in vivo
[2] = system: powdery mildew pathogen, Blumeria graminis f. sp. hordei; assay: In vivo control of barley powdery mildew on barley seedlings
[3] = system: late blight pathogen, Phytophthora infestans; assay type: in vivo
[4] = system: powdery mildew pathogen, Sphaerotheca fidigenea; assay: In vivo control of cucumber powdery mildew (natural infestation in greenhouse); details: for Control value (%) The 1st Exp. cucumber powdery mildew: 1st experiment; for Control value (%) The 2nd Exp. cucumber powdery mildew: 2nd experiment
Method: The culture solution was diluted with distilled water at a ratio of 1:10, 1:25, 1:50, 1:100 and 1:200. Each diluent was mixed with 250 μg/ml of Tween 20, and sprayed to leaves of the 7th leaf stage of cucumbers.
Topseed (Greenbiotech Co., Ltd.) known as a microbial fungicide for controlling powdery mildew was diluted with distilled water at a ratio of 1:10, 1:25, 1:50, 1:100 and 1:200, and each diluent and flusilazole (Dongbu Hannong Chemical Co., Ltd.) as a positive control were sprayed to cucumber plants to prepare a comparative group. The cucumbers treated with Tween 20 solution alone were employed as a control group.
1 week after spraying, each diluent of the culture solution and comparative sample was sprayed to the target cucumbers second time. 1 week after further spraying, effect on controlling powdery mildew was assessed according to the same method as described in Example 3. The cucumbers were allowed to be infested naturally from a resident powdery mildew pathogen, Sphaerotheca fidigenea in a greenhouse.

[5] = system: gray mold pathogen, Bouytis cinerea; assay type: in vivo

N#Cc1sc2c(=O)c3ccccc3c(=O)c=2sc1C#N [Dithianon, dithianon]
Control value (%) Cucumber anthracnose ([1]; 10 μg/ml): 80%
Control value (%) Cucumber anthracnose ([1]; 100 μg/ml): 100%

CCCCNC(=O)n1c(NC(=O)OC)nc2ccccc21 [Benomyl, benomyl]
Control value (%) Barley powdery mildew ([2]; 1 μg/ml): 52%
Control value (%) Barley powdery mildew ([2]; 100 μg/ml): 100%

N#Cc1c(Cl)c(Cl)c(Cl)c(C#N)c1Cl [Chlrothalonil, chlrothalonil]
Control value (%) Tomato late blight ([3]; 50 μg/ml): 89%
Control value (%) Tomato late blight ([3]; 100 μg/ml): 100%

C[Si](Cn1cncn1)(c1ccc(F)cc1)c1ccc(F)cc1 [Flusilazole, flusilazole]
Control value (%) The 1st Exp. cucumber powdery mildew ([4]; 10 μg/ml): 97%
Control value (%) The 2nd Exp. cucumber powdery mildew ([4]; 10 μg/ml): 97%
Control value (%) The 1st Exp. cucumber powdery mildew ([4]; 30 μg/ml): 99%
Control value (%) The 2nd Exp. cucumber powdery mildew ([4]; 30 μg/ml): 99%

CN(C)S(=O)(=O)N(SC(F)(Cl)Cl)c1ccccc1 [Dichlofluanid, dichlofluanid]
Control value (%) Tomato gray mold ([5]; 40 μg/ml): 86%
Control value (%) Tomato gray mold ([5]; 80 μg/ml): 97%
